Our source for the IC50 and melting point values is patent US20100160356A1, “NOVEL CYCLOBUTYL COMPOUNDS AS KINASE INHIBITORS” (priority 2006, published 2010).

Data set [1] deals with T1, IGF1 receptor (IGF1R) (Homo sapiens, UniProt P08069).
T1 construct: endogenous in cells; host or cells: MCF-7 or Calu-6
The data set is described as follows: Inhibition of IGF1R (ELISA assay), IGF1-stimulated autophosphorylation in cells. In kind it is cell-based. The note with it: human tumour cells stimulated with IGF1, read-out: IC50 IGF (ELISA). In short, it runs like this: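 Cells were preincubated 45 min with increasing compound concentrations, then stimulated 5 min with IGF1. Phospho-IGF1R in lysates was captured by a receptor-specific antibody and detected with anti-phosphotyrosine antibody via chemiluminescence ELISA or fluorescent LUMINEX read-out.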
(In an ELISA, binding on a coated surface is turned into a signal by an enzyme label.)

For data set [2], the target named is T2, insulin receptor (InsR) (Homo sapiens, UniProt P06213).
T2 construct: endogenous in cells; host or cells: HepG2
T2 sequence (P06213 28-1382): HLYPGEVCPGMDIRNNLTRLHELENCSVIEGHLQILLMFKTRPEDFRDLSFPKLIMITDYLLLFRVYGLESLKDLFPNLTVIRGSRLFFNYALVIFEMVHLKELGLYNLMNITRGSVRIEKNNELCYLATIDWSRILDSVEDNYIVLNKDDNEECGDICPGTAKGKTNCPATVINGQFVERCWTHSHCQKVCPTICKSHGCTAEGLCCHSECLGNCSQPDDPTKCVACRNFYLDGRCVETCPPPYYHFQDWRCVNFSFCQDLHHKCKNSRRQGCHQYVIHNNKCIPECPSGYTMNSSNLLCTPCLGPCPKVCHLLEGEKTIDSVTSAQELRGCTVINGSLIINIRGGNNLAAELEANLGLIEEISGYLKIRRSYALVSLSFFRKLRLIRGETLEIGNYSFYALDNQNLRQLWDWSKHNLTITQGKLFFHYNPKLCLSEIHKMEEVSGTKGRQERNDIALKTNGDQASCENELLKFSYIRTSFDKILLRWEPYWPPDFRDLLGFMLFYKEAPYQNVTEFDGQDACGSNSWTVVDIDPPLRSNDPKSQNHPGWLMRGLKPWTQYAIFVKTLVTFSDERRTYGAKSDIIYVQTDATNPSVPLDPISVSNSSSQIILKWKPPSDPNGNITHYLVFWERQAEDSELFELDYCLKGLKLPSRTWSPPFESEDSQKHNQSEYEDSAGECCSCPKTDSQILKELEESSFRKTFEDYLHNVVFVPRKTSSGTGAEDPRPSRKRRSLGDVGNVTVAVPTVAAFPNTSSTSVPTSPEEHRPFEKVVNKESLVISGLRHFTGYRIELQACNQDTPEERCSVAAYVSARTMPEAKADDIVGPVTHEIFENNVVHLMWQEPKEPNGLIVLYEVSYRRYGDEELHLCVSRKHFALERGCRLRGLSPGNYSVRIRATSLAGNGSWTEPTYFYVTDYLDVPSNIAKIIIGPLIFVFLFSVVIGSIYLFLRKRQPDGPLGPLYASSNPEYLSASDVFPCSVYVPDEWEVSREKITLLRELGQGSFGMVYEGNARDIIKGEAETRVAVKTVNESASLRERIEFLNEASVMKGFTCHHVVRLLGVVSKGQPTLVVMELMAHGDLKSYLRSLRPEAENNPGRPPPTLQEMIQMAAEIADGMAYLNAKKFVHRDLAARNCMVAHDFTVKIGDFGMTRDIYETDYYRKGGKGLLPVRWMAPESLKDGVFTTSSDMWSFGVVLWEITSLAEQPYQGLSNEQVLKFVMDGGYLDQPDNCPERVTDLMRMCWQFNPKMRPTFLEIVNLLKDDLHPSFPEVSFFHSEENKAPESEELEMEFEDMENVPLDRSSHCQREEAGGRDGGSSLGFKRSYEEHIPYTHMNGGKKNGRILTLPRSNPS
The data set is described as follows: Inhibition of InsR (ELISA assay), insulin-stimulated autophosphorylation in cells. In kind it is cell-based. As to conditions: human cells stimulated with insulin. Here is the method: Cultivated human cells which express the insulin receptor (InsR) (for example HepG2) are stimulated using human insulin, the natural ligand of InsR. The stimulation induces autophosphorylation of tyrosine residues in the cytoplasmatic InsR domain, which triggers signal transduction cascades, which initiate various biological reactions of the cells. The amount of phosphorylated InsR is determined by a receptor-specific capture ELISA or an analogous LUMINEX assay. The InsR from cell lysates is bound to a 96-well ELISA plate or LUMINEX beads by means of a specific antibody (“capturing”), and the tyrosine phosphorylation is detected using a biotin-labelled anti-phosphotyrosine antibody and a streptavidin-peroxidase conjugate by a chemiluminescence method or by means of a fluorescence-labelled anti-phosphotyrosine antibody. For determination of the activity of kinase inhibitors, cells are pretreated with increasing concentrations of these compounds for 45 min and subsequently stimulated using insulin for 5 min. As internal control, the biological activity of the ligand insulin is checked, and a concentration series of a reference inhibitor is measured.

For data set [3], the target named is T3, TGFβR1 (Homo sapiens, UniProt P36897).
T3 sequence (P36897 34-503): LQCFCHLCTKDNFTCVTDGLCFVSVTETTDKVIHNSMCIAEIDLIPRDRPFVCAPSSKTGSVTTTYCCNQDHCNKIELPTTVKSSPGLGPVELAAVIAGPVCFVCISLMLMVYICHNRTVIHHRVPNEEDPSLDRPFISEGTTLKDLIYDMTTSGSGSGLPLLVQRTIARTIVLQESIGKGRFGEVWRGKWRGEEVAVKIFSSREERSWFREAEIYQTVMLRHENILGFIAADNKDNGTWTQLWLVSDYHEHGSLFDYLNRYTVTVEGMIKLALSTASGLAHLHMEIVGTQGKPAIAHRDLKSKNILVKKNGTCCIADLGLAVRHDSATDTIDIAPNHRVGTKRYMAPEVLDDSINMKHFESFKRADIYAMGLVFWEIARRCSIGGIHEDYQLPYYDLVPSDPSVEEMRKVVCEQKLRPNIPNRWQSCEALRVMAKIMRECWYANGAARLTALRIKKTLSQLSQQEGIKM
The data set is described as follows: Inhibition of TGFβR1 (flashplate assay). In kind it is biochemical. The note with it: flashplate method. In short, it runs like this:
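Kinase was incubated 45 min with 33P-ATP and biotinylated substrate, with or without test substances, then stopped with EDTA. Incorporated radioactivity was counted by scintillation in a flashplate format. IC50 values were calculated from the counts.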

Data set [4] deals with T4, SGK1 (Homo sapiens, UniProt O00141).
T4 sequence (O00141 1-431): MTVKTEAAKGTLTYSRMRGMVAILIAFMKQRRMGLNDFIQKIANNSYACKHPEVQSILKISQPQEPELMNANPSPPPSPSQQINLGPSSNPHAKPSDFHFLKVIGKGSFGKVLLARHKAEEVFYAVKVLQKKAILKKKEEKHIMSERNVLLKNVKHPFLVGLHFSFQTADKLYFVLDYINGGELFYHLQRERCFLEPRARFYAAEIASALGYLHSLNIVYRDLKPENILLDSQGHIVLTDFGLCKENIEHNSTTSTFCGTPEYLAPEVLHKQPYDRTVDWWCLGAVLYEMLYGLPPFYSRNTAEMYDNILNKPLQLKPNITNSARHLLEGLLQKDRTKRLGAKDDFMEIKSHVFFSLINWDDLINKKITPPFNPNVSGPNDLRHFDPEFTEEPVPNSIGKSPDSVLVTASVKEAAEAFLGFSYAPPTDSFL
The data set is described as follows: Inhibition of SGK1 (flashplate assay). In kind it is biochemical. The note with it: flashplate method. Here is the method:
The test plates used are 384-well flashplate microtitre plates from Perkin Elmer (USA). The components of the kinase reaction are pipetted into the assay plate. The SGK1 kinase is incubated for 3 hr. with radioactively labelled ^33P-ATP in the presence and absence of test substances in a total volume of 100 μl at room temperature together with biotinylated poly(Glu, Tyr)4:1. The reaction is terminated using 25 μl of a 200 mM EDTA solution. After incubation for a further 30 min at room temperature, the supernatants are removed by suction, and the wells are washed three times with 100 μl of 0.9% NaCl solution each time. The radioactivity is measured using a Topcount scintillation counter (PerkinElmer, USA). IC50 values are calculated using the RS1 computer program.

T1 sequence (P08069 31-1367): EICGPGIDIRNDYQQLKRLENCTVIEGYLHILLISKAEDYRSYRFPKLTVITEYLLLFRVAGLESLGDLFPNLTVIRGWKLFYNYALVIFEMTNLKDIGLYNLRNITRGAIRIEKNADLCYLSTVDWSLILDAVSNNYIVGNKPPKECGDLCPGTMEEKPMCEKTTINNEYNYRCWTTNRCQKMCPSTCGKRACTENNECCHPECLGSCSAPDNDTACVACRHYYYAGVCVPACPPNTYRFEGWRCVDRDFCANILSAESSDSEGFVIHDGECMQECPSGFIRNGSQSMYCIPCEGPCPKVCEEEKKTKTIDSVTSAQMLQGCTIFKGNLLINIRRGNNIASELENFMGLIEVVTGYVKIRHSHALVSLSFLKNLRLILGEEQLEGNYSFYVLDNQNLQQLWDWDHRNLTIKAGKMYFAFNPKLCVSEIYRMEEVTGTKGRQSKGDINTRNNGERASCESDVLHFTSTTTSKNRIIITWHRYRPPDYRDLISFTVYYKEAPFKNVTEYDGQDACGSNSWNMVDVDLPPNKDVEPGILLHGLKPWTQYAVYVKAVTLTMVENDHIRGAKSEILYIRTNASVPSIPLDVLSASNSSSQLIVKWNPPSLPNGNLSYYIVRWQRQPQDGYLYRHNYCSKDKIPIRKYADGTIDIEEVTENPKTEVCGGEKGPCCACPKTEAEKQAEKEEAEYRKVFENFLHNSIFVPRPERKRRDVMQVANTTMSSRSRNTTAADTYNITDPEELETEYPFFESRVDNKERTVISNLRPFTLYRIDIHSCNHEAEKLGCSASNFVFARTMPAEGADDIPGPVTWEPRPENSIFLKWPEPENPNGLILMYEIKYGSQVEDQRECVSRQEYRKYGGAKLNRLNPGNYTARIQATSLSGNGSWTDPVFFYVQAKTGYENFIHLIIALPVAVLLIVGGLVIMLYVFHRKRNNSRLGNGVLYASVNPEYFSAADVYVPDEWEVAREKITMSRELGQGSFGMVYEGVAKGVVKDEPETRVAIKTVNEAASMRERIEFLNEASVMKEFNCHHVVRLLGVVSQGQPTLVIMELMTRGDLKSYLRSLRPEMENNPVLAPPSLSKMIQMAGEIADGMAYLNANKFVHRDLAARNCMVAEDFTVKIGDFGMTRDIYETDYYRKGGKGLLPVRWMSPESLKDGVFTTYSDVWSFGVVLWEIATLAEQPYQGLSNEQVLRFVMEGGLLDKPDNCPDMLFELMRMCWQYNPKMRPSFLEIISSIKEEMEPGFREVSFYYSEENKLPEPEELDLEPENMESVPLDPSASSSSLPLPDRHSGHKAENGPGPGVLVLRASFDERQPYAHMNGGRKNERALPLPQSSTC

By IC50 is commonly meant the concentration that gives 50% inhibition. For orientation: melting point means the temperature, or range, at which the solid turns liquid. Turning to `Nc1ncnc2c1c(-c1cccc(O)c1)cn2C1CC(CN2CCCC2)C1` (centres unmarked) [Compound 1, 3-[4-amino-7-(3-pyrrolidin-1-ylmethylcyclobutyl)-7H-pyrrolo[2,3-d]pyrimidin-5-yl]phenol], the melting point lay within 193 to 194 °C. In addition, the IC50 in data set [1] turned out to be 2.4 µM. Further, half-maximal inhibition in data set [2] (IC50) required 2.1 µM. Besides, half-maximal inhibition in data set [3] (IC50) required 0.12 µM.

For the compound `Nc1ncnc2c1c(-c1cccc(O)c1)cn2C1CC(CN2CCCC2)C1` (centres unmarked) [Compound 2, 3-[4-Amino-7-(3-pyrrolidin-1-ylmethylcyclobutyl)-7H-pyrrolo[2,3-d]pyrimidin-5-yl]phenol], the IC50 in data set [1] was found to be 5.9 µM; in data set [4], 7.4 µM; in data set [3] it was 0.14 µM.

`NCC1CC(n2cc(-c3ccc4[nH]ccc4c3)c3c(N)ncnc32)C1` (centres unmarked) [Compound 3, 7-(3-Aminomethylcyclobutyl)-5-(1H-indol-5-yl)-7H-pyrrolo[2,3-d]pyrimidin-4-ylamine] registered a melting point of 142 to 144 °C. In addition, in data set [1], the IC50 was determined as 5 µM. Also, the IC50 in data set [2] is 12 µM. Also, the IC50 in data set [3] amounted to 0.18 µM.

Turning to `NCC1CC(n2cc(-c3cc4ccccc4o3)c3c(N)ncnc32)C1` (centres unmarked) [Compound 37], the IC50 in data set [1] turned out to be 29 µM; in data set [4] it was 6.1 µM; in data set [3] it was 0.21 µM.
